Experimental findings from US20220315621A1, “COMPOSITIONS AND METHODS FOR TREATING CNS DISORDERS” (priority 2017, published 2022) are described below.

The first assay concerns the target GABAA receptor (rat brain cortical membranes, [35S]-TBPS binding). As to conditions: Table I-4; rat brain cortical membranes, 3 nM [35S]-TBPS, in the presence of 5 mM GABA.
For `CCOC[C@@]1(O)CC[C@H]2[C@H](CC[C@@H]3[C@@H]2CC[C@]2(C)[C@@H](C(=O)N4CCCC[C@@H]4C)CCC[C@@H]32)C1` [I-P9, ((1S,4aS,4bR,6aR,8R,10aS,10bR,12aS)-8-(ethoxymethyl)-8-hydroxy-12a-methyloctadecahydrochrysen-l-yl)((S)-2-methylpiperidin-1-yl)methanone], the IC50 (usually the point on the concentration scale where inhibition reaches its midpoint) lay in the range of 0.1 to 1 µM. For the compound `COC[C@@]1(O)CC[C@H]2[C@H](CC[C@@H]3[C@@H]2CC[C@]2(C)[C@@H](OC)CCC[C@@H]32)C1` [I-N11, (2R,4aS,4bR,6aS,7S,10aS,10bR,12aR)-7-methoxy-2-(methoxymethyl)-6a-methyloctadecahydrochrysen-2-ol], the IC50 is 0.01 to 0.1 µM. As for `C[C@@]1(O)CC[C@H]2[C@H](CC[C@@H]3[C@@H]2CC[C@]2(C)[C@@H](CNC(=O)c4ccccc4)CCC[C@@H]32)C1` [I-C4, N-(((1S,4aS,4bR,6aR,8R,10aS,10bR,12aS)-8-hydroxy-8,12a-dimethyloctadecahydrochrysen-1-yl)methyl)benzamide], the IC50 lay in the range of 0.1 to 1 µM. Turning to `C[C@@]1(O)CC[C@H]2[C@H](CC[C@@H]3[C@@H]2CC[C@]2(C)[C@@H](C(=O)NCc4ccccc4)CCC[C@@H]32)C1` [Compound I-14, (1S,4aS,4bR,6aR,8R,10aS,10bR,12aS)-N-benzyl-8-hydroxy-8,12a-dimethyloctadecahydrochrysene-1-carboxamide], the half-maximal inhibitory concentration (IC50) is 0.01 to 0.1 µM. With `C[C@@]1(O)CC[C@H]2[C@H](CC[C@@H]3[C@@H]2CC[C@]2(C)[C@@H](Nc4ccc(C#N)cc4)CCC[C@@H]32)C1` [Compound I-7, 4-(((1S,4aS,4bR,6aR,8R,10aS,10bR,12aS)-8-hydroxy-8,12a-dimethyloctadecahydrochrysen-1-yl)amino)benzonitrile], the half-inhibitory concentration (IC50) lay within 0.01 to 0.1 µM. As to `COC[C@@]1(O)CC[C@H]2[C@@H](CC[C@@H]3[C@@H]2CC[C@]2(C)[C@@H](C(=O)Cn4nnc(C)n4)CCC[C@@H]32)C1` [I-G16, 1-((1S,4aS,4bR,6aS,8R,10aS,10bR,12aS)-8-hydroxy-8-(methoxymethyl)-12a-methyloctadecahydrochrysen-1-yl)-2-(5-methyl-2H-tetrazol-2-yl)ethan-1-one], the IC50 is less than 0.01 µM. On the same count and under the same terms, to `C[C@@]1(O)CC[C@H]2[C@H](CC[C@@H]3[C@@H]2CC[C@]2(C)C[C@@H](C(=O)Cn4cc(C#N)cn4)CC[C@@H]32)C1` [I-R17, 1-(2-((2S,4aS,4bR,6aR,8R,10aS,10bR,12aR)-8-hydroxy-8,12a-dimethyloctadecahydrochrysen-2-yl)-2-oxoethyl)-1H-pyrazole-4-carbonitrile] belongs 1 to 10 µM; to `C[C@@]1(O)CC[C@H]2[C@H](CC[C@@H]3[C@@H]2CC[C@]2(C)C[C@H](C(=O)Cn4cc(C#N)cn4)CC[C@@H]32)C1` [I-R17a, 1-(2-((2R,4aS,4bR,6aR,8R,10aS,10bR,12aR)-8-hydroxy-8,12a-dimethyloctadecahydrochrysen-2-yl)-2-oxoethyl)-1H-pyrazole-4-carbonitrile], 1 to 10 µM; to `CNC[C@H]1CCC[C@H]2[C@@H]3CC[C@@H]4C[C@](C)(O)CC[C@@H]4[C@H]3CC[C@]12C` [I-C5, (2R,4aS,4bR,6aS,7S,10aS,10bR,12aR)-2,6a-dimethyl-7-((methylamino)methyl)octadecahydrochrysen-2-ol], 1 to 10 µM. For `CC(=O)[C@H]1CC[C@H]2[C@@H]3CC[C@@H]4C[C@](C)(O)CC[C@@H]4[C@H]3CC[C@]2(C)C1` [I-R14, 1-((2S,4aS,4bR,6aR,8R,10aS,10bR,12aR)-8-hydroxy-8,12a-dimethyloctadecahydrochrysen-2-yl)ethan-1-one], the IC50 fell in the range of 0.1 to 1 µM.

On to `CN(C[C@H]1CCC[C@H]2[C@@H]3CC[C@@H]4C[C@](C)(O)CC[C@@H]4[C@H]3CC[C@]12C)S(=O)(=O)c1ccccc1` [I-A8, N-(((1S,4aS,4bR,6aR,8R,10aS,10bR,12aS)-8-hydroxy-8,12a-dimethyloctadecahydrochrysen-l-yl)methyl)-N-methylbenzenesulfonamide], for which the IC50 fell in the range of 0.01 to 0.1 µM. For `COC[C@]1(O)CC[C@H]2[C@H](CC[C@@H]3[C@@H]2CC[C@]2(C)[C@@H](OC)CCC[C@@H]32)C1` [I-N11a, (2S,4aS,4bR,6aS,7S,10aS,10bR,12aR)-7-methoxy-2-(methoxymethyl)-6a-methyloctadecahydrochrysen-2-ol], the concentration for half-maximal inhibition (IC50) fell in the range of 1 to 10 µM. Turning to `C[C@@]1(O)CC[C@H]2[C@H](CC[C@@H]3[C@@H]2CC[C@]2(C)[C@@H](Nc4cccc(F)c4)CCC[C@@H]32)C1` [Compound I-12, (2R,4aS,4bR,6aS,7S,10aS,10bR,12aR)-7-((3-fluorophenyl)amino)-2,6a-dimethyloctadecahydrochrysen-2-ol], the IC50 was 0.01 to 0.1 µM. Take `CC(=O)[C@H]1CCC[C@H]2[C@@H]3CC[C@H]4C[C@](C)(O)CC[C@]4(C)[C@H]3CC[C@]12C` [I-K2, 1-((1S,4aS,4bR,6aS,8R,10aS,10bS,12aS)-8-hydroxy-8,10a,12a-trimethyloctadecahydrochrysen-1-yl)ethan-1-one]: the IC50 is 0.01 to 0.1 µM. `CCN(CC)C(=O)[C@H]1CCC[C@H]2[C@@H]3CC[C@@H]4C[C@](C)(O)CC[C@@H]4[C@H]3CC[C@]12C` [Compound I-16, (1S,4aS,4bR,6aR,8R,10aS,10bR,12aS)-N,N-diethyl-8-hydroxy-8,12a-dimethyloctadecahydrochrysene-1-carboxamide]: the IC50 lay in the range of 1 to 10 µM. The same measure, in the same setting: to `COC[C@@]1(O)CC[C@H]2[C@H](CC[C@@H]3[C@@H]2CC[C@]2(C)C(=O)[C@H](C)CC[C@@H]32)C1` [Compound I-53, (2R,4aS,4bR,6aR,8R,10aS,10bR,12aS)-8-hydroxy-8-(methoxymethyl)-2,12a-dimethylhexadecahydrochrysen-1(2H)-one] belongs 1 to 10 µM.

Still in this assay, the particulars now being: Table I-5; rat brain cortical membranes, 3 nM [35S]-TBPS, in the presence of 5 mM GABA.
Regarding `CC(=O)[C@@H]1C[C@H]2[C@@H]3CC[C@@H]4C[C@](C)(O)CC[C@]4(C)[C@H]3CC[C@]12C` [Compound I-103a, 1-((1R,2aS,2bR,4aR,6R,8aS,8bS,10aS)-6-hydroxy-6,8a,10a-trimethylhexadecahydrocyclobuta[a]phenanthren-1-yl)ethan-1-one], the IC50 lay within 1 to 10 µM. Turning to `COC[C@@]1(O)CC[C@H]2[C@H](CC[C@@H]3[C@@H]2CC[C@]2(C)[C@@H](C(=O)Nc4ccccc4)C[C@@H]32)C1` [I-AC8, (1S,2aS,2bR,4aR,6R,8aS,8bR,10aS)-6-hydroxy-6-(methoxymethyl)-10a-methyl-N-phenylhexadecahydrocyclobuta[a]phenanthrene-1-carboxamide], the half-maximal inhibitory concentration (IC50) lay in the range of 1 to 10 µM. As for `CC(=O)[C@H]1C[C@H]2[C@@H]3CC[C@@H]4C[C@](C)(O)CC[C@@H]4[C@H]3CC[C@]12C` [I-AA8, 1-((1S,2aS,2bR,4aR,6R,8aS,8bR,10aS)-6-hydroxy-6,10a-dimethylhexadecahydrocyclobuta[a]phenanthren-1-yl)ethan-1-one], the IC50 fell in the range of 0.1 to 1 µM. `C[C@@]1(O)CC[C@@]2(C)[C@H](CC[C@@H]3[C@@H]2CC[C@]2(C)[C@@H](C(=O)Cn4cc(C#N)cn4)C[C@@H]32)C1` [Compound I-106, 1-(2-((1S,2aS,2bR,4aR,6R,8aS,8bS,10aS)-6-hydroxy-6,8a,10a-trimethylhexadecahydrocyclobuta[a]phenanthren-1-yl)-2-oxoethyl)-1H-pyrazole-4-carbonitrile]: the half-inhibitory concentration (IC50) lay in the range of 0.1 to 1 µM.

Take `C[C@@]1(O)CC[C@H]2[C@H](CC[C@@H]3[C@@H]2CC[C@]2(C)[C@H](C(=O)Nc4ccccc4)C[C@@H]32)C1` [I-AA6a, (1R,2aS,2bR,4aR,6R,8aS,8bR,10aS)-6-hydroxy-6,10a-dimethyl-N-phenylhexadecahydrocyclobuta[a]phenanthrene-1-carboxamide]: the IC50 was 1 to 10 µM. Regarding `C[C@@]1(O)CC[C@H]2[C@@H](CC[C@@H]3[C@@H]2CC[C@]2(C)[C@@H](C(=O)Cn4cc(C#N)cn4)C[C@@H]32)C1` [I-AD10, 1-(2-((1S,2aS,2bR,4aS,6R,8aS,8bR,10aS)-6-hydroxy-6,10a-dimethylhexadecahydrocyclobuta[a]phenanthren-1-yl)-2-oxoethyl)-1H-pyrazole-4-carbonitrile], the concentration for half-maximal inhibition (IC50) was in the range of 1 to 10 µM. `C[C@@]1(O)CC[C@@]2(C)[C@H](CC[C@@H]3[C@@H]2CC[C@]2(C)[C@@H](C(=O)Cn4ccnn4)C[C@@H]32)C1` [Compound I-107a, 1-((1S,2aS,2bR,4aR,6R,8aS,8bS,10aS)-6-hydroxy-6,8a,10a-trimethylhexadecahydrocyclobuta[a]phenanthren-1-yl)-2-(1H-1,2,3-triazol-1-yl)ethan-1-one]: the IC50 fell in the range of 1 to 10 µM.

The same assay, now with this note: Table I-6; rat brain cortical membranes, 3 nM [35S]-TBPS, in the presence of 5 mM GABA.
Turning to `CC(=O)[C@H]1CCC[C@H]2[C@@H]3CC[C@@H]4C[C@](C)(O)CC[C@@H]4[C@H]3CC[C@]2(C)C1` [I-BC14a, 1-((2R,4aS,4bR,6aR,8S,11aS,11bR,13aR)-2-hydroxy-2,6a-dimethyloctadecahydro-1H-cyclohepta[a]phenanthren-8-yl)ethan-1-one], the concentration for half-maximal inhibition (IC50) lay in the range of 0.1 to 1 µM.

For the compound `C[C@@]1(O)CC[C@H]2[C@H](CC[C@@H]3[C@@H]2CC[C@]2(C)[C@H](C#N)CCCC[C@@H]32)C1` [I-BA16a, (2R,4aS,4bR,6aS,7R,11aS,11bR,13aR)-2-hydroxy-2,6a-dimethyloctadecahydro-1H-cyclohepta[a]phenanthrene-7-carbonitrile], the IC50 was 1 to 10 µM. With `C[C@@]1(O)CC[C@H]2[C@H](CC[C@@H]3[C@@H]2CC[C@]2(C)[C@@H](CO)CCCC[C@@H]32)C1` [I-BA5b, (2R,4aS,4bR,6aS,7S,11aS,11bR,13aR)-7-(hydroxymethyl)-2,6a-dimethyloctadecahydro-1H-cyclohepta[a]phenanthren-2-ol], the IC50 lay within 0.1 to 1 µM.
